Reference: patent publication US20170304388A1, “NEW INDICATION OF CARDIOVASCULAR DRUGS FOR PREPARATION OF CANCER INHIBITION PHARMACEUTICAL COMPOSITION” (LAUNX BIOMEDICAL CO., LTD., priority 2014, published 2017)
Structures can show the parent of a compound that is named as a salt. Where two headings read alike, the source gives them in different places.

Legend:
Type in all cases: cell-based
[1] = tested on: TSGH-8301 (Urinary Bladder Carcinoma); test: Cell viability analysis (WST-1), TSGH-8301; details: 72 h
[2] = tested on: PC3 (Prostate Adenocarcinoma); test: Cell viability analysis (WST-1), PC3; details: 72 h
[3] = tested on: BCC; test: Cell viability analysis (WST-1), BCC; details: BCC, 72 h, Table 4, repeated experiments, drug 10 μM, read-out: survival rate (viability) of cancer cells, BCC
[4] = tested on: MKN-45 (Gastric Adenocarcinoma); test: Cell viability analysis (WST-1), MKN-45; details: Homo sapiens, MKN-45, 72 h
[5] = tested on: HCT116 (Colorectal Carcinoma); test: Cell viability analysis (WST-1), HCT116; details: Homo sapiens, HCT-116, 72 h
[6] = tested on: MCF7 (Mammary Gland, Adenocarcinoma); test: Cell viability analysis (WST-1), MCF7; details: Homo sapiens, MCF7, 72 h
[7] = tested on: BxPC-3; test: Cell viability analysis (WST-1), BxPC-3; details: Homo sapiens, BXPC-3, 72 h, Table 4, repeated experiments, drug 10 μM, read-out: survival rate (viability) of cancer cells, BxPC-3
Procedure: (§1) Subculture the different types of cancer cells. The cancer cells includes lung cancer, gastric cancer, hepatic cancer, colon cancer, skin cancer, cervical cancer, prostate cancer, bladder cancer, breast cancer, leukemia, pancreatic cancer, ovarian cancer, tongue cancer, osteosarcoma, and renal cancer. The cell numbers were counted and reseed as 2×10^6 in cell culture plate/flask. Then, the culture medium for culturing the cell lines was added to a volume of 10 ml, and the cells were cultured for 2-3 days. Then, the cells were suspended for loading into 96-well plates. The cell number was 3000 cells and the volume of the culture medium was 100 ul each well.
(§2) Removing the original culture medium from 96-well plate. Then add 100 μl of commercially drug at a concentration of 10 μM per well. After 72 hours, add the diluted WST-1 reagent to the well with 100 μl/well, and the diluted WST-1 reagent was acquired from the dilution of 9:1 medium and WST-1 stock reagent. Finally, the total volume of each well are 200 μl/well. Culture the 96-well plate at 37° C. for 30 to 90 minutes. Detecting and calculating the survival rate of each cancer cells with an ELISA reader at OD450 nm. The lower viability of cancer cells represents better inhibition effect via the drugs. Otherwise, the higher viability of cancer cells represents worse inhibition effect via the drugs.
(§3) According to the above mentioned cardiovascular drugs for cancer growth inhibition in Table 3, the inventors took the repeat experiments for the cardiovascular drugs to check the growth inhibitory effects of cancer cells by the cardiovascular drugs. […] 4.

[8] = tested on: SAS; test: Cell viability analysis (WST-1), SAS; details: 72 h, Table 4, repeated experiments, drug 10 μM, read-out: survival rate (viability) of cancer cells, SAS
Procedure: as §1, §2, §3

[9] = tested on: AsPC-1; test: Cell viability analysis (WST-1), AsPC-1; details: Homo sapiens, ASPC1, 72 h, Table 4, repeated experiments, drug 10 μM, read-out: survival rate (viability) of cancer cells, AsPC-1
Procedure: as §1, §2, §3

[10] = tested on: AGS (Gastric Adenocarcinoma); test: Cell viability analysis (WST-1), AGS; details: 72 h
[11] = tested on: H1650 (Lung Adenocarcinoma); test: Cell viability analysis (WST-1), H1650; details: Homo sapiens, NCI-H1650, 72 h, Table 3, drug 10 μM, WST-1, OD450 nm, read-out: survival rate (viability) of cancer cells, H1650
[12] = tested on: HeLa (Cervix Adenocarcinoma); test: Cell viability analysis (WST-1), HeLa; details: Homo sapiens, HeLa, 72 h, Table 3, drug 10 μM, WST-1, OD450 nm, read-out: survival rate (viability) of cancer cells, HeLa
[13] = tested on: cancer cell lines; test: Growth inhibitory effects on the panel of cancer cell lines; details: drug 10 μM, 72 hours; for Numbers of inhibitory effect on cancer cell line: count of cancer cell lines inhibited; for inhibition effect on different cancer cell lines (in words): WST-1
[14] = tested on: A549 (Lung Adenocarcinoma); test: Cell viability analysis (WST-1), A549; details: Homo sapiens, A549, 72 h, Table 3, drug 10 μM, WST-1, OD450 nm, read-out: survival rate (viability) of cancer cells, A549
[15] = tested on: HepG2 (Hepatocellular Carcinoma); test: Cell viability analysis (WST-1), HepG2; details: Homo sapiens, HepG2, 72 h, Table 3, drug 10 μM, WST-1, OD450 nm, read-out: survival rate (viability) of cancer cells, HepG2
[16] = tested on: LoVo (Colorectal Adenocarcinoma); test: Cell viability analysis (WST-1), LoVo; details: Homo sapiens, LoVo, 72 h, Table 3, drug 10 μM, WST-1, OD450 nm, read-out: survival rate (viability) of cancer cells, LoVo
[17] = tested on: HL-60 (Acute Promyelocytic Leukemia); test: Cell viability analysis (WST-1), HL-60; details: Homo sapiens, HL-60; Table 3; drug 10 μM, 72 hours, WST-1, OD450 nm; read-out: survival rate (viability) of cancer cells, HL-60
[18] = tested on: A375 (Amelanotic Melanoma); test: Cell viability analysis (WST-1), A375; details: Homo sapiens, A-375, 72 h, Table 3, drug 10 μM, WST-1, OD450 nm, lower viability = better inhibition, read-out: survival rate (viability) of cancer cells, A375
[19] = Table 3, drug 10 μM, WST-1, OD450 nm, read-out: survival rate (viability) of cancer cells, TSGH
[20] = Table 3, drug 10 μM, WST-1, OD450 nm, read-out: survival rate (viability) of cancer cells, PC3
[21] = Table 3, drug 10 μM, WST-1, OD450 nm, read-out: survival rate (viability) of cancer cells, MKN-45
[22] = Table 3, drug 10 μM, WST-1, OD450 nm, read-out: survival rate (viability) of cancer cells, HCT116 (WT)
[23] = Table 3, drug 10 μM, WST-1, OD450 nm, read-out: survival rate (viability) of cancer cells, MCF7
[24] = Table 3, drug 10 μM, WST-1, OD450 nm, read-out: survival rate (viability) of cancer cells, AGS

| SMILES | viability at 10 µM [1, 19] [%] | viability at 10 µM [2, 20] [%] | viability at 10 µM [11] [%] | viability at 10 µM [12] [%] | viability at 10 µM [4, 21] [%] | viability at 10 µM [5, 22] [%] | viability at 10 µM [6, 23] [%] | Numbers of inhibitory effect on cancer cell line [13] | inhibition effect on different cancer cell lines (in words) [13] | viability at 10 µM [14] [%] | viability at 10 µM [15] [%] | viability at 10 µM [16] [%] | viability at 10 µM [17] [%] | viability at 10 µM [18] [%] | viability at 10 µM [10, 24] [%] | also measured |
| --- | --- | --- | --- | --- | --- | --- | --- | --- | --- | --- | --- | --- | --- | --- | --- | --- |
| CC1=C(C(=O)OC(C)C)C(c2cccc([N+](=O)[O-])c2)C(C(=O)OC2CN(C(c3ccccc3)c3ccccc3)C2)=C(N)N1 (stereo not drawn) [Azelnidipine] |  |  |  |  |  |  |  |  |  |  |  |  |  |  |  | viability at 10 µM ([1]; Table 4, repeated experiments, drug 10 μM, WST-1, read-out: survival rate (viability) of cancer cells, TSGH-8301): 115%; viability at 10 µM ([2]; Table 4, repeated experiments, drug 10 μM, WST-1, read-out: survival rate (viability) of cancer cells, PC-3): 121%; viability at 10 µM [3]: 100%; viability at 10 µM ([4]; Table 4, repeated experiments, drug 10 μM, WST-1, read-out: survival rate (viability) of cancer cells, MKN-45): 139%; viability at 10 µM ([5]; Table 4, repeated experiments, drug 10 μM, WST-1, read-out: survival rate (viability) of cancer cells, HCT116): 111%; viability at 10 µM ([6]; Table 4, repeated experiments, drug 10 μM, WST-1, read-out: survival rate (viability) of cancer cells, MCF-7): 60.8%; viability at 10 µM [7]: 64.6%; viability at 10 µM [8]: 76.8%; viability at 10 µM [9]: 53.6%; viability at 10 µM ([10]; Table 4, repeated experiments, drug 10 μM, WST-1, read-out: survival rate (viability) of cancer cells, AGS): 90.2% |
| CO[C@@H]1[C@@H](OC(N)=O)[C@@H](O)[C@H](Oc2ccc3c(O)c(NC(=O)c4ccc(O)c(CC=C(C)C)c4)c(=O)oc3c2C)OC1(C)C [Novobiocin sodium (Albamycin), Novobiocin sodium] | 85.3 | 89 | 93.5 | 96.1 | 84.4 | 116 | 109 | 0 | significant inhibition effect | 95.2 | 92 | 87.1 | 123 | 93.4 | 128 |  |
| O=C(O)c1cc(=O)c2ccccc2o1 [Chromocarb] | 97.2 | 88.3 | 78.8 | 67.6 | 100 | 72.8 | 100 | 0 | significant inhibition effect | 61.1 | 95.6 | 72.5 | 110 | 63.4 | 81.8 |  |
| CCCNCC(O)COc1ccccc1C(=O)CCc1ccccc1 (stereo not drawn) [Propafenone (Rytmonorm), Propafenone] | 61.1 | 104 | 92.5 | 109 | 84.7 | 109 | 120 | 0 |  | 94.1 | 86 | 105 | 113 | 95.8 | 79.8 |  |
| Cc1cnc(C(=O)O)c[n+]1[O-] [Acipimox] | 99.8 | 94.5 | 89.6 | 87.6 | 80.2 | 79.4 | 75.8 | 0 | significant inhibition effect | 108 | 99.8 | 77.4 | 102 | 124 | 87.5 |  |
| CCCCNc1cc(C(=O)O)cc(S(N)(=O)=O)c1Oc1ccccc1 [Bumetanide] | 92.6 | 72.7 | 105 | 79.5 | 98.8 | 66.8 | 116 | 0 | significant inhibition effect | 88.2 | 86 | 98.6 | 98.3 | 67.6 | 69.9 |  |
| CCN(CC)CCOC(=O)C(c1ccccc1)c1ccccc1 [Adiphenine HCl] | 82 | 102 | 119 | 96.4 | 95.7 | 134 | 103 | 0 | significant inhibition effect | 86.8 | 95.5 | 95.7 | 105 | 87.6 | 109 |  |
| Cc1cccc(Cc2c[nH]cn2)c1C [Detomidine HCl] | 74.2 | 89.2 | 90.6 | 88.8 | 91 | 133 | 106 | 0 | significant inhibition effect | 81.1 | 102 | 91 | 105 | 84.8 | 68.5 |  |
